In the NIST ThermoML archive (doi:10.1021/je800460a):

Experiment: wn = mass fraction of the nth substance listed
Conditions: 101 kPa, Liquid

NC(CO)(CO)CO [2-amino-2-(hydroxymethyl)-1,3-propanediol] + O
Conditions | mass density, w1 = 0.0217 [kg/m3] | mass density, w1 = 0.051 [kg/m3] | mass density, w1 = 0.103 [kg/m3] | mass density, w1 = 0.158 [kg/m3] | mass density, w1 = 0.217 [kg/m3] | viscosity, w1 = 0.0217 [mPa·s] | viscosity, w1 = 0.051 [mPa·s] | viscosity, w1 = 0.103 [mPa·s] | viscosity, w1 = 0.158 [mPa·s] | viscosity, w1 = 0.217 [mPa·s]
298 K | 1001.3 | 1009 | 1021.6 | 1033.6 | 1046.5 | 0.913 | 0.995 | 1.148 | 1.353 | 1.605
303 K | 999.6 | 1007.4 | 1019.2 | 1031.8 | 1044.2 | 0.874 | 0.94 | 1.059 | 1.223 | 1.449
313 K | 994.9 | 1002.8 | 1014.6 | 1026.8 | 1038.9 | 0.733 | 0.799 | 0.884 | 1.008 | 1.172
323 K | 988.1 | 996 | 1008.2 | 1019.9 | 1032.7 | 0.6 | 0.65 | 0.711 | 0.808 | 0.93
